{"source": "ChEMBL document CHEMBL1201862", "about": "“PubChem BioAssay data set” (2004)", "key": {"[1]": {"test": "blockers of bursicon-stimulated LGR2 cAMP reporter – cell-based, HEK293, CRE-luciferase reporter, cherry pick, set 2, dose response (AID 743343);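 further: transfected cells were stimulated with diluted bursicon conditioned medium after compound addition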", "format": "functional"}, "[2]": {"test": "A549 cell cytotoxicity, dose response, cytotoxicity control, plate reader, cherry-pick, antagonist series (AID 743412)", "format": "functional, cell-based"}, "[3]": {"test": "Vero E6 cell cytotoxicity, dose response, cytotoxicity control for non-replicating M. tuberculosis project, secondary assay (AID 492998)", "format": "functional, VeroE6", "settings": "Vero C1008"}, "[4]": {"target": "T1, Beta-galactosidase (Escherichia coli, UniProt Q8VNN2)", "T1 sequence (Q8VNN2 whole entry)": "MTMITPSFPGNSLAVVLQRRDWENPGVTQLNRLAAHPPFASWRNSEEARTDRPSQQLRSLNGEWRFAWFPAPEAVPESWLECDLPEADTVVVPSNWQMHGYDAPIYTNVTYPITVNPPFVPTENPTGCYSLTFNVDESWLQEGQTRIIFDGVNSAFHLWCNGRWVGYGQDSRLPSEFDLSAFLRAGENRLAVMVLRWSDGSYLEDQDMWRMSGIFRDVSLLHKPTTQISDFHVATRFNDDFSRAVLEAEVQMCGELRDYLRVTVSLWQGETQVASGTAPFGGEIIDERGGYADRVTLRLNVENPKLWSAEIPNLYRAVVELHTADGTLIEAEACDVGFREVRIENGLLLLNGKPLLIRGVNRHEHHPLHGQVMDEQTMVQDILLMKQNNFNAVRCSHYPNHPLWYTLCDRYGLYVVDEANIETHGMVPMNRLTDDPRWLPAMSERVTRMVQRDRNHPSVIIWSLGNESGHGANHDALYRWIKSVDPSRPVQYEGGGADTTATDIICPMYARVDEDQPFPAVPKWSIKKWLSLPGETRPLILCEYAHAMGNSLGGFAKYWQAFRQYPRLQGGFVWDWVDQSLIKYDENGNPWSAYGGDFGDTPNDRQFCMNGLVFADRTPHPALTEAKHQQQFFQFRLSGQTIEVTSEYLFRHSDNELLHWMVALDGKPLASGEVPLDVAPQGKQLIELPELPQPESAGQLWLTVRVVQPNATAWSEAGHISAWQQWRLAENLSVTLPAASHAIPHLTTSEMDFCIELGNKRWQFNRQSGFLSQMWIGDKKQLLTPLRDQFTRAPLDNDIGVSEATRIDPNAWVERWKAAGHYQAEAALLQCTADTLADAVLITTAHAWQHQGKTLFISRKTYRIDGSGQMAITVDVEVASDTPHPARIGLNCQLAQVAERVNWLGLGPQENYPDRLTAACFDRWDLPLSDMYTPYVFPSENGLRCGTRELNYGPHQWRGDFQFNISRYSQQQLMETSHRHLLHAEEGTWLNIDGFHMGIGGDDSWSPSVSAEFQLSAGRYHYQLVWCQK", "format": "functional"}, "[5]": {"target": "T2, Kappa-type opioid receptor (Homo sapiens, UniProt P41145)", "T2 sequence (P41145 whole entry)": "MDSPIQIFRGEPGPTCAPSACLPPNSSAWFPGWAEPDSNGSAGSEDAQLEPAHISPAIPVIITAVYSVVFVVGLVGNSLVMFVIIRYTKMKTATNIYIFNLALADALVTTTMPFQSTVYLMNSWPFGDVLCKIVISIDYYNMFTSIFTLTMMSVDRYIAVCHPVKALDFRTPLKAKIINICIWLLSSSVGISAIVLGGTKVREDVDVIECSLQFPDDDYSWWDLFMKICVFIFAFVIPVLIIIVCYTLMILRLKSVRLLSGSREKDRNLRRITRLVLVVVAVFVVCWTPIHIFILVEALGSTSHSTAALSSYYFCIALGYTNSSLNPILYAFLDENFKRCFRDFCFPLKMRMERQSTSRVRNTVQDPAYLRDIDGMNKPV", "format": "functional"}, "[6]": {"target": "T2, Kappa-type opioid receptor", "format": "functional", "remark": "listed apart in the source"}, "[7]": {"system": "Streptococcus sp. 'group A'", "test": "Streptococcus pyogenes SK(-)GAS viability under kanamycin – luminescence, BacTiterGlo, confirmation, counter-screen for streptokinase expression inhibitor project, dose response (AID 1900)", "format": "functional, organism-based"}, "[8]": {"target": "T1, Beta-galactosidase", "test": "PubChem AID 485352", "format": "functional"}, "[9]": {"test": "blockade of melanocortin 4 receptor signaling – cell-based, plate reader, cherry pick, counter-screen for LGR2 antagonist project, dose response (AID 743444);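 further: transfected HEK 293 cells stimulated with alpha-MSH peptide; potency of inhibitors of the alpha-MSH evoked signal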", "format": "functional"}, "[10]": {"test": "HepG2 cell cytotoxicity, dose response, cytotoxicity control for non-replicating M. tuberculosis project (AID 489018)", "format": "functional", "settings": "Mycobacterium tuberculosis"}, "[11]": {"target": "T3, Streptokinase A (Streptococcus pyogenes serotype M1, UniProt P10520)", "T3 sequence (P10520 whole entry)": "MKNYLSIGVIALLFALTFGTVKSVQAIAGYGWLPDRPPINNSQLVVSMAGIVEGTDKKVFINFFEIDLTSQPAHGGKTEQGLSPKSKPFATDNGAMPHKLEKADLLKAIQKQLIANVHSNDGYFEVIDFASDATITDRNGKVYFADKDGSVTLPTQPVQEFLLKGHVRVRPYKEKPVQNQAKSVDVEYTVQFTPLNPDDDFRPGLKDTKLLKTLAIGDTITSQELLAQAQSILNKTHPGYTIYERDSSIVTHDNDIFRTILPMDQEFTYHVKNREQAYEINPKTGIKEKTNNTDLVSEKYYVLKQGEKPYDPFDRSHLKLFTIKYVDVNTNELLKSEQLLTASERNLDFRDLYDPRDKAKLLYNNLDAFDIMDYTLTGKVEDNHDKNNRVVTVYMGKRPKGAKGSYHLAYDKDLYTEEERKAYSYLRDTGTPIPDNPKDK", "test": "viability-normalized secreted streptokinase activity reduction – plasminogen activation absorbance, OD405, dose response (AID 1914)", "format": "functional, Streptococcus pyogenes M1 GAS"}, "[12]": {"test": "viability loss in HEK293 cells – cell-based, plate reader, cherry-picked samples, cytotoxicity control, dose response (AID 743446)", "format": "functional"}, "[13]": {"target": "T4, Type-1 angiotensin II receptor (Homo sapiens, UniProt P30556)", "T4 sequence (P30556 whole entry)": "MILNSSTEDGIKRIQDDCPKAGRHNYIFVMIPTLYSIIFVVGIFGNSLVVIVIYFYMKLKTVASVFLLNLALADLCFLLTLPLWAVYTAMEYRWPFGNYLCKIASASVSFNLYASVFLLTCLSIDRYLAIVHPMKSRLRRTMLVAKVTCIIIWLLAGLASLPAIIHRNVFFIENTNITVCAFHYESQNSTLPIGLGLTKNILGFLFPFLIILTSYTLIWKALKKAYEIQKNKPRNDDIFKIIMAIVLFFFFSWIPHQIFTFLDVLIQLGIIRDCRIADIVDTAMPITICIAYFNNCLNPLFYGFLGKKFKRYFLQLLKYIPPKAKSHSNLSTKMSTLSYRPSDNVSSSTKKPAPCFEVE", "test": "antagonism of angiotensin II type 1 receptor – cell-based, uHTS hits, selectivity assay for APJ receptor antagonist project, dose response (AID 463214)", "format": "functional"}, "[14]": {"test": "cells", "format": "functional"}, "[15]": {"test": "THP-1 cell cytotoxicity, dose response, cytotoxicity control for non-replicating M. tuberculosis project (AID 489025)", "format": "functional"}, "[16]": {"system": "Streptococcus", "test": "GAS UMAA2166 growth inhibition – luminescence, BacTiterGlo, counter-screen for streptokinase expression inhibitor project, dose response (AID 1915)", "format": "functional, organism-based"}, "[17]": {"system": "INS1", "test": "INS-1E survival protection against cytokine death – cell-based, luminescence, retest, dose response (AID 449756);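 further: cell death triggered by IL-1 beta plus TNF-alpha plus IFN-gamma mixture; protective hits raise ATP signal compared with cytokine alone wells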", "format": "functional", "settings": "Rattus norvegicus"}, "[18]": {"test": "toxicity toward HepG2 liver cells – cell-based, plate reader, cherry-pick, antagonist series, cytotoxicity control, dose response (AID 743416)", "format": "functional"}, "[19]": {"target": "T5, Coagulation factor XII (Homo sapiens, UniProt P00748)", "T5 sequence (P00748 whole entry)": "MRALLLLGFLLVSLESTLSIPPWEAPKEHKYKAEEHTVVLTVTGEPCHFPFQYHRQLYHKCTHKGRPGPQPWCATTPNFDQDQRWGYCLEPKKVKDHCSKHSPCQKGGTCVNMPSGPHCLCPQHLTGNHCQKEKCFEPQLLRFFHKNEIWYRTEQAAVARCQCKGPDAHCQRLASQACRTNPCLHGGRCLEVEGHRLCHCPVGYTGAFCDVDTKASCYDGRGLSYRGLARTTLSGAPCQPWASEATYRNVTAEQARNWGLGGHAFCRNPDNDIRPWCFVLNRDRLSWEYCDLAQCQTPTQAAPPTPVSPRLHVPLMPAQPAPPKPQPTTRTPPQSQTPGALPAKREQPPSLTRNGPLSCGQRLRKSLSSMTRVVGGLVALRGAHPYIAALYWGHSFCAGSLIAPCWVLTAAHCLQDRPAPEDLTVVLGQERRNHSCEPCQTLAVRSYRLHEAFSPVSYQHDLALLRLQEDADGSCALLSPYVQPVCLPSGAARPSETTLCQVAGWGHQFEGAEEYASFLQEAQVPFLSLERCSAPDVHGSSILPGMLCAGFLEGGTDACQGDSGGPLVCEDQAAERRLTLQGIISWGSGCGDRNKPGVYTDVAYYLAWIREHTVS", "test": "activated coagulation factor XII inhibitor potency, concentration-effect curve, cell-free (AID 716)", "format": "functional"}, "[20]": {"target": "T6, Sphingosine 1-phosphate receptor 4 (Homo sapiens, UniProt O95977)", "T6 sequence (O95977 whole entry)": "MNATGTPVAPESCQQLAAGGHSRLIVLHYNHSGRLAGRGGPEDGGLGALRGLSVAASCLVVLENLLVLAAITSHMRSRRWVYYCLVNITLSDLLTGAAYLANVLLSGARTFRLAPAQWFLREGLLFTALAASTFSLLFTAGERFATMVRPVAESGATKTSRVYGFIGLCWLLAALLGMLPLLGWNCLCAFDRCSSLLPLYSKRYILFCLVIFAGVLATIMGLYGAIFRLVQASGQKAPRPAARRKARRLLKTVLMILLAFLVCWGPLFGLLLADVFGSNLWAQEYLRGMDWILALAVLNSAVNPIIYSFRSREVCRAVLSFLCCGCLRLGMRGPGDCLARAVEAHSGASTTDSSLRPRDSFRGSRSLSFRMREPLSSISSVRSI", "test": "Late-stage fluorescence dose response cell-based assay to identify agonists of the Sphingosine 1-Phosphate Receptor 4 (S1P4): purchased compounds EC50. [Related pubchem assays (depositor defined):AID1509, AID1523, AID1563, AID1686, AID1701, AID1801]", "format": "functional"}, "[21]": {"target": "T5, Coagulation factor XII", "format": "functional"}, "[22]": {"test": "luciferase reporter signal suppression in cells – H4 neuroglioma cells, luminescence, dose response (AID 1990)", "format": "functional, cell-based"}, "[23]": {"target": "T7, X-box-binding protein 1 (Homo sapiens, UniProt P17861)", "T7 sequence (P17861 whole entry)": "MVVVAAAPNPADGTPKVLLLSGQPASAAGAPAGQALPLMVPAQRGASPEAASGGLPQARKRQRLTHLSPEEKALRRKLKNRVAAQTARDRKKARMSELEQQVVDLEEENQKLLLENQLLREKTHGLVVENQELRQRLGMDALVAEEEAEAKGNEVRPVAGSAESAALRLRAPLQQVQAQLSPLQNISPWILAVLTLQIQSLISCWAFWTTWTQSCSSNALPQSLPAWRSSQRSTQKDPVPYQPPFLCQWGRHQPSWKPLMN", "format": "functional, Cricetulus griseus"}, "[24]": {"target": "Paired box protein Pax-8 (Homo sapiens, UniProt Q06710)", "sequence (Q06710 whole entry)": "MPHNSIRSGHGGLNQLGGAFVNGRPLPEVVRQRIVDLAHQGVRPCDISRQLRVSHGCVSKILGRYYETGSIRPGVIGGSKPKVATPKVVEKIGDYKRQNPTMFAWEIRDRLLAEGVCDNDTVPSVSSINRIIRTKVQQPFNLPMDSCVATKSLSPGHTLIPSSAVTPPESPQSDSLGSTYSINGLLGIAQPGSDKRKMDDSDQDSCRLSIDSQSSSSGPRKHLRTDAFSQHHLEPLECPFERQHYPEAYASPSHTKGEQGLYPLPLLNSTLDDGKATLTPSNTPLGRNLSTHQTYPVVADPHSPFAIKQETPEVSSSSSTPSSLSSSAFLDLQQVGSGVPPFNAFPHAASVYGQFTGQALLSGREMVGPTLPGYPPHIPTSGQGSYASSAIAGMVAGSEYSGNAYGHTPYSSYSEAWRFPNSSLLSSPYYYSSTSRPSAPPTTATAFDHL", "test": "PAX8 transcriptional activity inhibition in RMG-I – RMG-I cells, luciferase, cherry-pick, dose response (AID 687027);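 further: luciferase reporter driven by Pax8 target thyroperoxidase promoter measured by SteadyGlo luminescence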", "format": "functional, cell-based"}, "[25]": {"test": "alpha-synuclein stem-loop luciferase translation blockers – H4 neuroglioma cells, luminescence, confirmation (AID 1988)", "format": "functional, cell-based"}, "[26]": {"target": "Phosphomannomutase 2 (Homo sapiens, UniProt O15305)", "sequence (O15305 whole entry)": "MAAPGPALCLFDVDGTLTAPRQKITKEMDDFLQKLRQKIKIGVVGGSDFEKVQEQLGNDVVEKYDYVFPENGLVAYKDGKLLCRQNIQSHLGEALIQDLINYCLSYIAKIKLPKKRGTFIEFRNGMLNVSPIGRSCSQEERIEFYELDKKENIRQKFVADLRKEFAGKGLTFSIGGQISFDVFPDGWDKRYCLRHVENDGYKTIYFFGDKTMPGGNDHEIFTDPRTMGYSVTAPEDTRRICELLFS", "test": "Counter screen SAR assay for PMM2 inhibitors via a fluorescence intensity assay. [Related pubchem assays (depositor defined):AID1545, AID1574]"}, "[27]": {"test": "Luminescence Cell-Based Dose Response HTS to Identify Inhibitors of 5'UTR Stem-Loop Driven Prion Protein mRNA Translation in H4 Neuroglioblastoma Cells. [Related pubchem assays: 1827 (Project Summary), 1813 (Primary HTS)]", "format": "functional"}}, "note": "Active and inactive are the calls of the source.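 Wherever Absolute IC50 (XBP1) is given: confirmatory dose-response counter-screen serving a CHOP assay.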", "data": [{"smiles": "O=C(Nc1nc2ccc(F)cc2s1)c1ccccn1", "values": [{"measurement": "AC50", "setting": "[1]", "value": "1.21 µM (active)"}, {"measurement": "AC50", "setting": "[2]", "value": "3.57 µM (active)"}, {"measurement": "CC50", "setting": "[3]", "value": "3.18 µM (active)"}, {"measurement": "EC50", "setting": "[4]", "value": "> 31.5 µM (inactive)"}, {"measurement": "IC50", "setting": "[5]", "value": "> 32", "unit": "µM"}, {"measurement": "IC50", "setting": "[6]", "value": "4.6 µM (active)"}, {"measurement": "EC50", "setting": "[7]", "value": "2.5 µM (active)"}, {"measurement": "EC50", "setting": "[8]", "value": "> 40 µM (inactive)"}, {"measurement": "AC50", "setting": "[9]", "value": "1.61 µM (active)"}, {"measurement": "CC50", "setting": "[10]", "value": "> 5 µM (active)"}, {"measurement": "EC50", "setting": "[11]", "value": "> 150 µM (not active)"}, {"measurement": "AC50", "setting": "[12]", "value": "8.2 µM (active)"}, {"measurement": "IC50", "setting": "[13]", "value": "3.96 µM (active)"}, {"measurement": "IC50", "setting": "[14]", "value": "< 0.1 µM (active)"}, {"measurement": "CC50", "setting": "[15]", "value": "0.982 µM (active)"}, {"measurement": "EC50", "setting": "[16]", "value": "10.1 µM (active)"}, {"measurement": "AC50", "setting": "[17]", "value": "2.72 µM (active)"}, {"measurement": "AC50", "setting": "[18]", "value": "10 µM (active)"}]}, {"smiles": "CCOCCn1c(SCCCc2ccccc2)nc2c1c(=O)[nH]c(=O)n2C", "values": [{"measurement": "IC50", "setting": "[19]", "value": "> 50 µM (inactive)"}]}, {"smiles": "COc1ccc(OCCOc2ccc(C)nc2[N+](=O)[O-])cc1", "values": [{"measurement": "EC50", "setting": "[20]", "value": "> 50 µM (inactive)"}]}, {"smiles": "O=S(=O)(N1CCCCC1)N1CCN(c2ccccc2F)CC1", "values": [{"measurement": "IC50", "setting": "[21]", "value": "> 50 µM (inactive)"}]}, {"smiles": "CCSc1nc(-c2ccccc2)nc(C(Cl)Cl)n1", "values": [{"measurement": "EC50", "setting": "[22]", "value": "> 120 µM (not active)"}, {"measurement": "Absolute IC50 (XBP1)", "setting": "[23]", "value": 10, "unit": "µM"}, {"measurement": "AC50", "setting": "[24]", "value": "1.95 µM (active)"}, {"measurement": "EC50", "setting": "[25]", "value": "1.11 µM (active)"}, {"measurement": "IC50", "setting": "[26]", "value": "> 100 µM (inactive)"}, {"measurement": "EC50", "setting": "[27]", "value": "5.98 µM (active)"}]}]}
